Data published in PMC4814262 (Cancer Science, 2016).

Biological target: LAT1 (Homo sapiens, UniProt Q01650)
Experiment: radiolabelled uptake in Xenopus oocytes
Type: cell-based
Settings: Na+-free uptake buffer (choline-Cl), pH 7.5, room temperature, 15 min; labelled compound

Sequence of LAT1 (Q01650 whole entry): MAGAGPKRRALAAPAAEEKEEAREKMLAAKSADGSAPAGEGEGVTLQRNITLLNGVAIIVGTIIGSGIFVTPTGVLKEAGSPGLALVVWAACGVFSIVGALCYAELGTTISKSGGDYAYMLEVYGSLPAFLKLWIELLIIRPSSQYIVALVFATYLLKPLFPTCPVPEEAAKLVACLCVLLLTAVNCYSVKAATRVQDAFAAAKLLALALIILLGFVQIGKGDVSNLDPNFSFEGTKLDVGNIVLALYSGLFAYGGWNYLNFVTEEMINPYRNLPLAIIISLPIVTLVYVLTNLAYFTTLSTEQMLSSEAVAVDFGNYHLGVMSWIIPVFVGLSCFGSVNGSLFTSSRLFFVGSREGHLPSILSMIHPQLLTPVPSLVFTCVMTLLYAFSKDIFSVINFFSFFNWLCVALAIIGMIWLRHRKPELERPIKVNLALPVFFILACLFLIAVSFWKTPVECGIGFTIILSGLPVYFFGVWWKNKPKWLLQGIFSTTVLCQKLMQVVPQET
Sequence of LAT1 (P08195 103-630 partner): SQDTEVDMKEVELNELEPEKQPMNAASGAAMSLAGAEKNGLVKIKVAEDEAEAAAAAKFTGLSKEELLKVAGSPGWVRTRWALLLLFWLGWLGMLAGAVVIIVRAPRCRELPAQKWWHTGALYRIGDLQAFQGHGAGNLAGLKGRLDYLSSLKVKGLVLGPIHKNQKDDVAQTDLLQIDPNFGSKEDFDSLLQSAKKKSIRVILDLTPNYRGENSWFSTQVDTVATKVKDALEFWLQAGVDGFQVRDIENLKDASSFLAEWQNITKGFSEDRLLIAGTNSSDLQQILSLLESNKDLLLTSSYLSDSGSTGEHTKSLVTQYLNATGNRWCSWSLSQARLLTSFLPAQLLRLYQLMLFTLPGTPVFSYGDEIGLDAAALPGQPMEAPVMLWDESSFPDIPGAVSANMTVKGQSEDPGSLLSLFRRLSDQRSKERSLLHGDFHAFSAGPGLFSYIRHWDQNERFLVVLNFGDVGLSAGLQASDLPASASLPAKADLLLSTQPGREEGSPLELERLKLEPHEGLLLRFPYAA

C[C@](N)(Cc1ccc(O)c(F)c1)C(=O)O [FAMT, 3‐fluoro‐L‐α‐methyl[carboxyl‐^14C]tyrosine]
Km: 72.7 ± 11 µM
